Test results taken from article PMC5947527 (Chemical Science, 2015).
“Also recorded” adds a separate entry of the source. Residues, ends and D or L forms follow the SMILES beside them. *: point of attachment. NBD = O=[N+]([O-])c1ccc(*)c2nonc12; Ahx = NCCCCCC(=O)O

Tests used:
[1] = Chemical stability on storage in phosphate buffered saline at 37 °C (HPLC); type: physicochemical; details: 1 mg mL–1 in PBS, day 0 vs day 3, HPLC, detection at 380 nm
Protocol: This modification is particularly of relevance due to the expected in vivo inflammatory oxidative environment within an infected pneumonic lung due to infiltrating host inflammatory cells such as neutrophils,[13] and therefore all subsequent modifications incorporated Nle in place of Met.
HPLC chromatograms (gradient acetonitrile + 0.1% formic acid/water + 0.1% formic acid from 5/95 to 95/5 over 10 min, then isocratic for 4 min; detection at 380 nm). UBI-2 (1 mg mL^–1 in PBS, upper panels) and UBI-3 (1 mg mL^–1 in PBS, lower panels) at (A) day 0 and (B) day 3 after incubation at 37 °C.

P. aeruginosa = test: Live confocal imaging of bacteria, signal to noise of FAM vs NBD label; type: cell-based; details: confocal microscopy, 10 μM
Source text: UBI29–41 was firstly conjugated to carboxyfluorescein (UBI-1) and used to image bacteria with analysis via confocal microscopy. This yielded insufficient signal to noise to distinguish bacteria from background fluorescence (Fig. 1). We therefore took advantage of the environmental reporting properties of the fluorophore 7-nitrobenz-2-oxa-1,3-diazole (NBD)[12] and hypothesized there would be fluorescence amplification of NBD in the apolar hydrophobic bacterial membrane.
Fig. 1 NBD–UBI enables live confocal imaging of bacteria. […]
(§1) Confocal Analysis and Fluorescence Quantification: 8-Well Lab-Tek II Confocal Chambers (VWR, PA, USA) were coated in fibronectin (for neutrophil experiments) or poly-d-lysine (for bacteria) at 37 °C for 20 minutes, then washed in PBS prior to bacterial innoculation. […] Exposure to 488 nm light was limited to 5% of the maximum laser power in order to minimize toxicity. ‘Green’ fluorescence (for FAM and NBD) was excited with a dedicated 488 nm line and emitted light detected with meta detector (500-530 nM).
(§2) Syto nuclear and dyes were excited with a dedicated 543 nm line, and emitted light detected with meta detector (570-610 nM). Fields of view were chosen based on the counterstain and at least three fields of view were recorded for each condition. […]
mean fluorescence intensity on the probe channel within this ROI was quantified. […]

[2] = test system: methicillin-sensitive Staphylococcus aureus (MSSA), Pseudomonas aeruginosa and Klebsiella pneumoniae; test: Confocal bacterial labelling, UBI-2 vs UBI-3 on a panel of bacteria; type: cell-based; details: fluorescence normalised to UBI-2, mean ± SEM, n ≥ 3
Protocol: Fig. 3 UBI-3 retains specificity and sensitivity for bacterial labelling. […] Panels show bacteria labelled with either UBI-2 or UBI-3 with quantification of fluorescence (values normalised to UBI-2) (Bars represent mean, error bars represent standard error of mean, n ≥ 3, ns = not significant, scale bar = 10 μm). (B) Quantification from confocal images of UBI-3 (10 μM) imaging a panel of bacteria (statistical analyses shown compared to unlabelled bacteria, n ≥ 3 for each bacteria, *** = p < 0.001). […] [MRSA: methicillin-resistant Staphylococcus aureus, MSSA: methicillin-sensitive Staphylococcus aureus]. […]
as §1, §2

[3] = test system: methicillin-sensitive Staphylococcus aureus; test: Confocal labelling of MSSA with quantified fluorescence; type: cell-based; details: for concentration dependence of bacterial labelling: 0.5 μM to 50 μM, methicillin sensitive S. aureus; for bacterial labelling (fluorescence compared with UBI-3): MSSA, 10 μM, fluorescence normalized to UBI-3, mean ± SEM, n ≥ 3
Protocol: Fig. 6 Confocal Images of compounds UBI-3 to 9 with quantified fluorescence. Panels show methicillin-sensitive Staphylococcus aureus incubated with UBI-3 to 9 (all 10 μM) with quantification of bacterial fluorescence normalized to UBI-3 (bars represent mean (±SEM), n ≥ 3, ns = not significant, *** = p < 0.001, * = p < 0.05, scale bar = 10 μm).
Fig. 8 Confocal images and quantification of cyclic variants when compared to UBI-3. Panels show methicillin-sensitive Staphylococcus aureus incubated with cyclic UBI compounds (all 10 μM) with quantification of bacterial fluorescence normalized to UBI-3 (bars represent mean (±SEM), n ≥ 3, ns = not significant, ** = p < 0.01, scale bar = 10 μm).
Bacterial Culture and Labelling: Bacteria used were K. pneumoniae (ATCC BAA1706) ATCC, E. coli (ATCC 25922) ATCC, A. baumannii (J3433) Clinical Isolate, P. aeruginosa (J3284) Clinical Isolate, Methicillin Resistant S. aureus (MRSA) (ATCC25923) ATCC and Methicillin Sensitive S. aureus (MSSA) (ATCC 252) ATCC. All bacteria were grown on Lysogeny broth (LB) agar and from a single bacterial colony placed into 10ml of LB and incubated at 37°C for 16 hours in an orbital shaker.
Cultures were centrifuged at 4000rpm for 5 minutes and the pellet resuspended in 1ml phosphate buffered saline (PBS, Life Technologies). Following three further washes in PBS the cultures were reconstituted to 1 OD595 nm. Bacteria were counterstained with 5µM Syto 82 orange fluorescent nucleic acid stain (Invitrogen, CA, USA) in a shaking heat block at 37 °C for 20 minutes. For FCFM bacteria were stained with 1µM Calcein AM (Sigma, MO, USA) for 30 minutes at 37 °C. Counterstained bacteria were washed in PBS to remove excess dye. […]
(§3) Confocal Analysis and Fluorescence Quantification: 8-Well Lab-Tek II Confocal Chambers (VWR, PA, USA) were coated in fibronectin (for neutrophil experiments) or poly-d-lysine (for bacteria) at 37 °C for 20 minutes, then washed in PBS prior to bacterial innoculation. For co-culture assays, neutrophils were seeded on fibronectin coated wells at 1 x 10^5 neutrophils per well for 20 minutes and non-adherent neutrophils aspirated. Bacteria were added to each chamber to a final concentration of 0.5 OD595 nm with the desired final concentration of Smartprobe. A laser-scanning confocal imaging system (LSM510; Carl Zeiss, Jena, Germany), incorporating an upright Axioskop FS2 microscope (63× objective) was used for image acquisition and processing. Exposure to 488 nm light was limited to 5% of the maximum laser power in order to minimize toxicity. ‘Green’ fluorescence (for FAM and NBD) was excited with a dedicated 488 nm line and emitted light detected with meta detector (500-530 nM).
(§4) Syto nuclear and dyes were excited with a dedicated 543 nm line, and emitted light detected with meta detector (570-610 nM). Fields of view were chosen based on the counterstain and at least three fields of view were recorded for each condition. For affinity assays, following initial imaging, the fluid was aspirated and two gentle washes with PBS were performed. The chamber was re-imaged on confocal.
(§5) Analysis was with ImageJ (version 1.46r, National Institutes of Health, USA); the Syto channel was automatically thresholded (MaxEntropy, with a set threshold 0-47) and an ROI generated from this. The […]
(§6) mean fluorescence intensity on the probe channel within this ROI was quantified. Data presented represents the mean of three experiments, from each of which three separate fields of view were assessed. All experiments were performed at least three times unless otherwise stated and results expressed as mean ± SEM. Data was analysed by unpaired t-test and significance was determined as p<0.05 (GraphPad Prism version 5.01 for Windows, GraphPad Software, San Diego California USA).
Ex vivo Human Lung and FCFM Procedure: Human lung samples were obtained from patients undergoing surgical resection for lung carcinoma. All images were obtained on sections of normal lung […]

[4] = test system: Methicillin sensitive S. aureus, K. pneumoniae and P. aeruginosa; test: Bacterial affinity: fluorescence retention following a PBS wash (confocal); type: cell-based; details: for bacterial affinity (Table 1, effect on efficacy): Table 1 summary
Protocol: Three compounds (UBI-3, UBI-5 and UBI-10) were assessed for further evaluation. […] In vitro affinity of bacterial binding was assessed by incorporating a wash step in the live confocal imaging protocol with a panel of bacteria with the ‘wash-off’ representing a surrogate indicator of Smartprobe-bacterial labelling affinity. […] UBI-10, therefore, was assessed further in a clinically relevant biological system.
Figure S4. Quantified fluorescence of confocal microscopy images of the compounds UBI-3, UBI-5 and UBI-10 on three bacteria and fluorescence retention following a PBS wash. Quantification of fluorescence intensity of (A) Methicillin sensitive S. aureus, (B) K. pneumoniae and (C) and P. […]
intensity following a PBS wash. […]
as §3, §4, §5, §6
Ex vivo Human Lung and FCFM Procedure: Human lung samples were obtained from patients undergoing surgical resection for lung carcinoma. All images were obtained on sections of normal lung away from the cancerous growth. Informed consent was obtained and the study was approved by the Regional Ethics Committee. Samples were taken fresh from the operating theatre, dissected into 4mm sections and placed in wells of 96 well plate. Bacteria were pre-labelled with Smartprobe or Calcein AM and co-cultured in the well with a maximum volume of 100µl. […]

Row | Compound | chemical stability in PBS at 37 °C [1] | signal to noise for bacterial labelling (P. aeruginosa) | bacterial labelling, Met vs Nle variant [2] | concentration dependence of bacterial labelling [3] | bacterial labelling (fluorescence compared with UBI-3) [3] | fluorescence following labelling and a PBS wash ([4]; 10 µM, two gentle PBS washes, three bacterial species, n=3) | bacterial affinity (Table 1, effect on efficacy) [4]
1 | CSCC[C@H](NC(=O)[C@H](CCCNC(=N)N)NC(=O)[C@H](CCCNC(=N)N)NC(=O)[C@H](CCCCN)NC(=O)[C@H](C)NC(=O)[C@H](CCCNC(=N)N)NC(=O)CNC(=O)[C@@H](NC(=O)CCCCCNc1ccc([N+](=O)[O-])c2nonc12)[C@@H](C)O)C(=O)N[C@@H](CCC(N)=O)C(=O)N[C@@H](Cc1ccc(O)cc1)C(=O)N[C@@H](CC(N)=O)C(=O)N[C@@H](CCCNC(=N)N)C(=O)N[C@@H](CCCNC(=N)N)C(N)=O [UBI-2] ({NBD-Ahx}-TGRAKRRMQYNRR-NH2) | underwent chemical degradation; also recorded: Unstable at 37 °C in PBS | good signal to noise; also recorded: higher signal to noise for bacterial labelling over UBI-1 | same fluorescence intensity |  |  |  | 
2 | NBD-Ahx-Thr-Gly-Arg-Ala-Lys-Arg-MeArg-Nle-Gln-Tyr-Asn-Arg-Arg-D-Phe-D-Val-NH2 [UBI-5, NBD-UBI with D-amino acids (D-Val and D-Phe) incorporated at the C-terminus] |  |  |  | concentration dependent manner | same intensity as UBI-3 | significantly lower fluorescence | poor bacterial affinity
3 | NBD-Ahx-Thr-Gly-Arg-Ala-Lys-MeArg-MeArg-Nle-Gln-Tyr-Asn-MeArg-MeArg-NH2 [UBI-4, NBD-UBI with N-Methylarginine (MeArg) insertion based on MALDI-TOF analysis of cleavage peptides] |  |  |  | concentration dependent increase in bacterial fluorescence | same intensity as UBI-3 |  | poor bacterial affinity
